# Literature values in patent publication US7947297B2, “Mixtures of phenolic and inorganic materials with antimicrobial activity” (BASF SE, priority 2000, dated 2011).
# Conditions: polypropylene samples, Xenon Arc Weather-Ometer at 035 W/m^2, 63° C.
smiles,measurement,value
"Oc1cc(Cl)ccc1Oc1ccc(Cl)cc1Cl [Irgaguard ® B1000, 2,4,4′-trichloro-2′-hydroxydiphenyl ether]",discoloration upon weathering,discolor within hours
